14 substances from US20110039762A1, “TARGETED ANTIMICROBIAL MOIETIES” (C3 JIAN, INC., priority 2009, published 2011) can be followed below.

Entries after “also recorded” stand apart in the source; their conditions may differ.

In assay [1] the test system is microorganisms. Description: Peptides having multiple activities (targeting/binding, antimicrobial, growth or phenotype altering). An excerpt:
In certain embodiments, peptides described herein can have multiple activities. Thus for example, a peptide can have both binding/targeting activity and antimicrobial activity. Such peptides can be used, e.g., in a chimeric construct, for any or all of these properties. Thus, for example, a peptide designated “B” in Table 8 can be used as a targeting peptide. If it is also designated G or M it can also be used for antimicrobial activity.

The subject of assay [2] is P. aeruginosa. Description: Kill or inhibit growth/proliferation; morphology, biofilm and growth disruption (Tables 5, 6). Note: test concentration or dose not given here. The assay is classed as cell-based, Pseudomonas aeruginosa. Also on record: key: A: Peptide aggregates; B: Less hyphal formation; Clumps; Diffuse clumps and small polyps; F: Diffuse growth; H: Thin; I: Growth inhibition; Microcolony formation; Rippled; Small polyps; Thick; W: Halo formation on top, microlonies on bottom.

Assay [3] relates to microorganisms (e.g., bacteria, yeasts, fungi). Description: Targeting peptide binding to target microorganisms (Table 3). Particulars: preferably 1x PBS; for Target(s): microorganism(s) the targeting peptide binds, binding in aqueous buffers depending on peptide solubility.
The test system of assay [4] is C. jejuni. Description: Kill or inhibit growth/proliferation; morphology, biofilm and growth disruption (Tables 5, 6). Note: test concentration or dose not given here. The assay is classed as cell-based, Campylobacter jejuni. Also on record: key: A: Peptide aggregates; B: Less hyphal formation; Clumps; Diffuse clumps and small polyps; F: Diffuse growth; H: Thin; I: Growth inhibition; Microcolony formation; Rippled; Small polyps; Thick; W: Halo formation on top, microlonies on bottom.

The subject of assay [5] is E. coli. Described as above. The format is cell-based, Escherichia coli. Details: key: A: Peptide aggregates; B: Less hyphal formation; Clumps; Diffuse clumps and small polyps; F: Diffuse growth; H: Thin; I: Growth inhibition; Microcolony formation; Rippled; Small polyps; Thick; W: Halo formation on top, microlonies on bottom.
Assay [6] has as its system MRSA. The assay is described as above. The assay is classed as cell-based, Methicillin-resistant Staphylococcus aureus. Also on record: key: A: Peptide aggregates; B: Less hyphal formation; Clumps; Diffuse clumps and small polyps; F: Diffuse growth; H: Thin; I: Growth inhibition; Microcolony formation; Rippled; Small polyps; Thick; W: Halo formation on top, microlonies on bottom.

The test system of assay [7] is S. pneumoniae. The assay is described as above. The format is cell-based, Streptococcus pneumoniae. Details: key: A: Peptide aggregates; B: Less hyphal formation; Clumps; Diffuse clumps and small polyps; F: Diffuse growth; H: Thin; I: Growth inhibition; Microcolony formation; Rippled; Small polyps; Thick; W: Halo formation on top, microlonies on bottom. Note: test concentration or dose not given here.
The subject of assay [8] is E. faecalis. The description is as above. The format is cell-based, Enterococcus faecalis. Details: key: A: Peptide aggregates; B: Less hyphal formation; Clumps; Diffuse clumps and small polyps; F: Diffuse growth; H: Thin; I: Growth inhibition; Microcolony formation; Rippled; Small polyps; Thick; W: Halo formation on top, microlonies on bottom.
The subject of assay [9] is S. epidermidis. Described as above. The format is cell-based, Staphylococcus epidermidis. Also on record: key: A: Peptide aggregates; B: Less hyphal formation; Clumps; Diffuse clumps and small polyps; F: Diffuse growth; H: Thin; I: Growth inhibition; Microcolony formation; Rippled; Small polyps; Thick; W: Halo formation on top, microlonies on bottom.
In assay [10] the test system is S. mutans. The assay is described as above. The format is cell-based, Streptococcus mutans. Also on record: key: A: Peptide aggregates; B: Less hyphal formation; Clumps; Diffuse clumps and small polyps; F: Diffuse growth; H: Thin; I: Growth inhibition; Microcolony formation; Rippled; Small polyps; Thick; W: Halo formation on top, microlonies on bottom. Note: test concentration or dose not given here.
For assay [11], the system named is M. luteus. The description is as above. The format is cell-based, Micrococcus luteus. Details: key: A: Peptide aggregates; B: Less hyphal formation; Clumps; Diffuse clumps and small polyps; F: Diffuse growth; H: Thin; I: Growth inhibition; Microcolony formation; Rippled; Small polyps; Thick; W: Halo formation on top, microlonies on bottom.
Throughout, for Organism, effect (morphology, biofilm and growth disruption): test concentration or dose not given here.
Throughout, for Organism, effect: test concentration or dose not given here.

LSPRPIIVSRRSRADNNNDWSR [PF-143]: in assay [1], the Activities entry was “G B”. The “Organism, effect” value in [2] is listed as “P. aeruginosa (C)”. Also, in assay [3], the “Target(s)” value is “S. epidermidis and MRSA and C. jeikeium”.

In the case of “PF-411: peptide having multiple activities (WVAVAILLNIALQTQLT; Peptide with targeting and/or antimicrobial activity)”, the Activities result in assay [1] is on record as “G B”. In addition, the “Organism, effect” value in [4] is on record as “C. jejuni (D)”; in assay [5] it was “E. coli (C)”; in [2] it was “P. aeruginosa (A)”; in [6], “MRSA (D)”; in [7], “S. pneumoniae (D)”; in assay [8], “E. faecalis (D)”. In addition, in assay [9], the “Organism, effect” value is “S. epidermidis (C)”.

On to ALCSVIKAIELGIINVHLQ [PF-366], for which the Activities result in assay [1] was “G B”. Moreover, the “Organism, effect” value is reported as “C. jejuni (D)” in assay [4]; “E. coli (C)” in [5]; “P. aeruginosa (A)” in [2]; “MRSA (D)” in [6]; “S. pneumoniae (C)” in assay [7]; “E. faecalis (C)” in assay [8]. In assay [9], the “Organism, effect” value is on record as “S. epidermidis (R)”.

With “PF-577: peptide having multiple activities (chain 1 PFETRESFRVPVIGILGGWDYFMHP; chain 2 PFETRESFRVPVIGILGGWDYFMHP; Peptide with targeting and/or antimicrobial activity)”, the Activities result in [1] is “G B”. The “Organism, effect” value in [4] is on record as “C. jejuni (R)”; in assay [5], “E. coli (A)”; in assay [2] it was “P. aeruginosa (A)”; in [6] it was “MRSA (M)”; in assay [7], “S. pneumoniae (R)”; in assay [8], “E. faecalis (A)”. Besides, the “Organism, effect” value in [9] was “S. epidermidis (A)”.

As for “PF-356: peptide having multiple activities (chain 1 VSIKIGAIVIGMIGLMELLTE; chain 2 VSIKIGAIVIGMIGLMELLTE; Peptide with targeting and/or antimicrobial activity)”, the Activities entry in [1] is reported as “G B”. Moreover, the “Organism, effect” value is given as “C. jejuni (D)” in assay [4]; “P. aeruginosa (A)” in assay [2]; “MRSA (C)” in assay [6]; “S. pneumoniae (R)” in [7]; “E. faecalis (R)” in assay [8]; “S. epidermidis (S)” in assay [9].

Turning to “PF-536 (MEPIPHIMIIANQIGIIIEKA; Peptide with targeting and/or antimicrobial activity)”, the “Organism, effect” value is “E. coli (R)” in assay [5]; “P. aeruginosa (H)” in assay [2]; “MRSA (C)” in assay [6]; “S. pneumoniae (M)” in [7]; “E. faecalis (C)” in assay [8]; “S. epidermidis (C)” in assay [9].

In the case of “PF-454: peptide having multiple activities (chain 1 MSVFVPVTNIFMFIMSPIFNVNLLHFKVYI; chain 2 MSVFVPVTNIFMFIMSPIFNVNLLHFKVYI; Peptide with targeting and/or antimicrobial activity)”, the Activities result in assay [1] is listed as “G B”. Besides, the “Organism, effect” value in assay [5] is “E. coli (R)”; in [2] it was “P. aeruginosa (H)”; in assay [6] it was “MRSA (C)”; in [7], “S. pneumoniae (R)”; in assay [8] it was “E. faecalis (C)”; in [9], “S. epidermidis (C)”.

As for “PF-128: peptide having multiple activities (GIKVVAARFEEIQFSENFDSIILA; Peptide with targeting and/or antimicrobial activity)”, the Activities result in [1] was “G B”. For the same substance, the “Organism, effect” value in assay [2] was “P. aeruginosa (C)”; in [9], “S. epidermidis (D)”. The “Target(s)” value in assay [3] is reported as “M. luteus; also recorded: P. aeruginosa; also recorded: E. faecalis”.

Consider “PF-535 (NIKTRKRALKIIKQHQRSK; Peptide with targeting and/or antimicrobial activity)”, for which the results for the “Organism, effect” value in [2] and in assay [7] were “P. aeruginosa (H)” and “S. pneumoniae (H)”, respectively.

Regarding “PF-776: peptide having multiple activities (VSILLYLSATIILPNVLRLLVARAIIVRV; Peptide with targeting and/or antimicrobial activity)”, the Activities entry in assay [1] is recorded as “G B”. Besides, the “Organism, effect (morphology, biofilm and growth disruption)” value in assay [10] is on record as “S. mutans (D)”; in [5] it was “E. coli (C)”; in assay [11], “M. luteus (C)”; in assay [6], “MRSA (D)”; in [7], “S. pneumoniae (C)”; in [9], “S. epidermidis (D)”. The “Target(s) (microorganisms bound by the targeting peptide)” value in [3] (peptide binding in aqueous buffers varied by peptide solubility) was “S. epidermidis and M. luteus and P. mirabilis and C. albicans and MRSA and S. pneumoniae and E. faecalis”.

Consider “PF-432: peptide having multiple activities (FNGDSEFFLCIAF; Peptide with targeting and/or antimicrobial activity)”, for which the Activities entry in assay [1] is reported as “G B”. For the same substance, the “Organism, effect” value in [4] is listed as “C. jejuni (D)”; in assay [5], “E. coli (R)”; in assay [2], “P. aeruginosa (A)”; in assay [6], “MRSA (M)”; in assay [7] it was “S. pneumoniae (D)”; in assay [8], “E. faecalis (D)”. For the same substance, the “Organism, effect” value in [9] is recorded as “S. epidermidis (M)”.

Consider “PF-380: peptide having multiple activities (chain 1 KKIIPLITLFVVTLVG; chain 2 KKIIPLITLFVVTLVG; Peptide with targeting and/or antimicrobial activity)”, for which the Activities entry in assay [1] was “G B”. Further, the “Organism, effect” value in assay [4] is “C. jejuni (D)”; in assay [5], “E. coli (C)”; in [2], “P. aeruginosa (A)”; in assay [6], “MRSA (D)”; in assay [7] it was “S. pneumoniae (D)”; in [8], “E. faecalis (C)”. Moreover, the “Organism, effect” value in assay [9] is listed as “S. epidermidis (C)”.

“PF-355: peptide having multiple activities (chain 1 WIAIGLLLYFSLKNQ; chain 2 WIAIGLLLYFSLKNQ; Peptide with targeting and/or antimicrobial activity)”: the Activities result in [1] is recorded as “G B”. In addition, the “Organism, effect” value in [4] is listed as “C. jejuni (D)”; in assay [5], “E. coli (C)”; in [2], “P. aeruginosa (A)”; in assay [6] it was “MRSA (A)”; in assay [7], “S. pneumoniae (D)”; in assay [8], “E. faecalis (D)”. For the same substance, the “Organism, effect” value in assay [9] is listed as “S. epidermidis (C)”.

“PF-458: peptide having multiple activities (chain 1 ISLIIFIMLFVVALFKCITNYKHQS; chain 2 ISLIIFIMLFVVALFKCITNYKHQS; Peptide with targeting and/or antimicrobial activity)”: in [1], the Activities entry is “G B”. For the same substance, the “Organism, effect” value is reported as “P. aeruginosa (H)” in assay [2], “MRSA (M)” in assay [6] and “S. pneumoniae (M)” in assay [7].
